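In this assay, cells in 96-well plates receive the compound at five concentrations for 48 hours. Endpoints are linearly interpolated between the surrounding concentrations. GI50 is the concentration that inhibits growth by half. At the TGI there is no net growth.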
Experiments:
Assay in all cases: NCI-60 cell line screen, 48 h
BT-549 breast = tested on: BT-549 breast
NCI-H23 lung = tested on: NCI-H23 lung
SW-620 colon = tested on: SW-620 colon
RPMI-8226 leukemia = tested on: RPMI-8226 leukemia
SN12C renal = tested on: SN12C renal
IGROV1 ovarian = tested on: IGROV1 ovarian
A498 renal = tested on: A498 renal
LOX IMVI melanoma = tested on: LOX IMVI melanoma
OVCAR-5 ovarian = tested on: OVCAR-5 ovarian
SNB-19 CNS = tested on: SNB-19 CNS
EKVX NSCLC = tested on: EKVX NSCLC
K-562 leukemia = tested on: K-562 leukemia

SMILES | TGI (BT-549 breast) [µM] | TGI (NCI-H23 lung) [µM] | TGI (SW-620 colon) [µM] | TGI (RPMI-8226 leukemia) [µM] | TGI (SN12C renal) [µM] | TGI (IGROV1 ovarian) [µM] | TGI (A498 renal) [µM] | TGI (LOX IMVI melanoma) [µM] | TGI (OVCAR-5 ovarian) [µM] | TGI (SNB-19 CNS) [µM] | TGI (EKVX NSCLC) [µM] | TGI (K-562 leukemia) [µM] | GI50 (BT-549 breast) [µM] | GI50 (NCI-H23 lung) [µM] | GI50 (SW-620 colon) [µM] | GI50 (RPMI-8226 leukemia) [µM] | GI50 (OVCAR-5 ovarian) [µM] | GI50 (EKVX NSCLC) [µM]
c1ccc(Nc2nnc(Cn3ccc4ccccc43)s2)cc1 | > 100 | > 100 | > 100 | > 100 | > 100 | > 100 | > 100 | > 100 | > 100 | > 100 | > 100 | > 100 |  |  |  |  |  | 
CCCCC(=O)NC1(c2cc3ccccc3s2)CCCCC1 | > 100 | > 100 | > 100 | > 100 | > 100 | > 100 | > 100 | > 100 | > 100 | > 100 | > 100 | > 100 |  |  |  |  |  | 
COc1cccc2c(Nc3ccc(S(=O)(=O)NC(C)=O)cc3)c3ccc([N+](=O)[O-])cc3nc12 | > 56 | > 100 | > 79.8 | > 100 | > 100 | > 86.7 | > 100 | > 100 | > 100 | > 100 | > 100 | > 84.7 |  |  |  |  |  | 
O=C1c2ccccc2-c2ccc(N=Nc3c(O)ccc4ccccc34)cc21 | > 100 | > 100 | > 100 | > 100 | > 100 | > 100 | > 100 | > 100 | > 100 | > 100 | > 100 | > 100 |  |  |  |  |  | 
CCSC1=N/C(=C\c2ccco2)C(Cl)=N1 | > 100 | > 100 | > 100 | > 100 | > 100 | > 100 | > 100 | > 100 | > 100 | > 100 | > 100 | > 100 |  |  |  |  |  | 
CCOC(=O)C(NC(=O)CC(C)C)(Nc1ccc(S(=O)(=O)Nc2nc(C)cc(C)n2)cc1)C(F)(F)F (stereo not drawn) | > 100 | > 100 | > 100 | > 100 | > 100 | > 100 | > 100 | > 100 | > 100 | > 100 | > 100 | > 100 |  |  |  |  |  | 
C=C1CC(C)(COc2ccc3ccc(=O)oc3c2)OC1=O (stereo not drawn) | 2.65 | 12.3 | 4.79 | 4.7 | 25 | 10.8 | 23.1 | 5.65 | 22.1 | 51.9 | 26.7 | 32.1 |  |  |  |  |  | 
CC1(C)CCCCCCC2OC2CCCCCC(C)(C)C1=O (stereo not drawn) | > 76.6 | > 100 | > 100 | > 95 | > 64 | > 100 | > 100 | > 100 | > 100 | > 100 | > 100 | > 82.6 |  |  |  |  |  | 
CCCCCCCCCCCCC(O)C1CCC(C(O)CCCCCCC(O)CCCCCCCC2=CC(C)OC2=O)O1 (stereo not drawn) | > 100 | > 100 | > 100 | 22.3 | 83.1 | > 100 | > 100 | 39.8 | > 100 | > 100 | > 100 | 40.6 | 34.6 | 13.3 | 45.8 | 2.05 | > 100 | 23
CNn1c(C)n[nH]c1=O | > 100 | > 100 | > 100 | > 100 | > 100 | > 100 | > 100 | > 100 | > 100 | > 100 | > 100 | > 100 |  |  |  |  |  | 
COc1ccc(-c2c(CN3CCOCC3)sc3nc4ccccc4n23)cc1 | > 100 | > 100 | > 100 | 23.4 | > 100 | > 86.8 | 72.4 | > 100 | > 74.7 | > 57.1 | > 57.4 | > 28.7 |  |  |  |  |  | 

Source: PubChem BioAssay (NCI)
